# Assay results taken from ChEMBL document CHEMBL1201862, “PubChem BioAssay data set” (2004).
#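 Cells were grown in 96-well plates and exposed to each compound for 48 hours at five concentrations; endpoints were interpolated linearly between bracketing concentrations, or set to the highest concentration if not reached. GI50 is the concentration that inhibits growth by half.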 Activity calls are given as the source filed them. Rule as the data show it: active = GI50 up to about 1.1 µM and inactive = higher.
# Experiments:
# Test in all cases: NCI-60 cell line screen, 48 h
# XF498 = system: XF498
# HL-60 = system: HL-60
# OVCAR-4 = system: OVCAR-4
# CCRF-CEM = system: CCRF-CEM
# HOP-62 = system: HOP-62
# HCT-116 = system: HCT-116
# SF-539 = system: SF-539
# RPMI-8226 = system: RPMI-8226
# DMS-273 = system: DMS-273
# A549 = system: A549
# KM-20L2 = system: KM-20L2
# K562 = system: K562
# RXF 631 = system: RXF 631
# OVCAR-8 = system: OVCAR-8
# IGROV-1 = system: IGROV-1
# NCI-H460 = system: NCI-H460
# MOLT-4 = system: MOLT-4
# UACC-257 = system: UACC-257
# SK-OV-3 = system: SK-OV-3
# LXFL 529 = system: LXFL 529
# HOP-18 = system: HOP-18
# COLO 205 = system: COLO 205
# NCI-H23 = system: NCI-H23
# SF-295 = system: SF-295
# SNB-75 = system: SNB-75
# SR = system: SR
# DLD-1 = system: DLD-1
# CAKI-1 = system: CAKI-1
# U-251 = system: U-251
# M14 = system: M14
# A498 = system: A498
# EKVX = system: EKVX
# DMS-114 = system: DMS-114
# HT-29 = system: HT-29
# M19-MEL = system: M19-MEL
# 786-0 = system: 786-0
# HCC 2998 = system: HCC 2998
# HCT-15 = system: HCT-15
# KM12 = system: KM12
# SK-MEL-2 = system: SK-MEL-2
# UO-31 = system: UO-31
# RXF 393 = system: RXF 393
# ACHN = system: ACHN
# SW-620 = system: SW-620
# SN12C = system: SN12C
# HOP-92 = system: HOP-92
# SK-MEL-28 = system: SK-MEL-28
# UACC-62 = system: UACC-62
# SNB-78 = system: SNB-78
# OVCAR-3 = system: OVCAR-3
# Malme-3M = system: Malme-3M
# SNB-19 = system: SNB-19
# OVCAR-5 = system: OVCAR-5
# SF-268 = system: SF-268
# TK-10 = system: TK-10
# SK-MEL-5 = system: SK-MEL-5
# LOX IMVI = system: LOX IMVI
# NCI-H226 = system: NCI-H226
compound,measurement,setting,value
CCC(C)(C)C(=O)O[C@H]1C[C@@H](C)C=C2C=C[C@H](C)[C@H](CC[C@@H]3C[C@@H](O)CC(=O)O3)[C@H]21 [SIMVASTATIN],GI50,XF498,> 30 µM (inactive)
same,GI50,HL-60,3.01 µM (inactive)
same,GI50,OVCAR-4,> 30 µM (inactive)
same,GI50,CCRF-CEM,11.3 µM (inactive)
same,GI50,HOP-62,9.2 µM (inactive)
same,GI50,HCT-116,3.27 µM (inactive)
same,GI50,SF-539,9.04 µM (inactive)
same,GI50,RPMI-8226,8.2 µM (inactive)
same,GI50,DMS-273,2.88 µM (inactive)
same,GI50,A549,5.79 µM (inactive)
same,GI50,KM-20L2,12.3 µM (inactive)
same,GI50,K562,17.6 µM (inactive)
same,GI50,RXF 631,0.55 µM (active)
same,GI50,OVCAR-8,1.37 µM (inactive)
same,GI50,IGROV-1,0.647 µM (active)
same,GI50,NCI-H460,9.08 µM (inactive)
same,GI50,MOLT-4,> 30 µM (inactive)
same,GI50,UACC-257,17.3 µM (inactive)
same,GI50,SK-OV-3,1.72 µM (inactive)
same,GI50,LXFL 529,6.67 µM (inactive)
same,GI50,HOP-18,> 30 µM (inactive)
same,GI50,COLO 205,12.1 µM (inactive)
same,GI50,NCI-H23,0.982 µM (active)
same,GI50,SF-295,1.13 µM (inactive)
same,GI50,SNB-75,0.658 µM (active)
same,GI50,SR,13.2 µM (inactive)
same,GI50,DLD-1,> 30 µM (inactive)
same,GI50,CAKI-1,4.03 µM (inactive)
same,GI50,U-251,0.766 µM (active)
same,GI50,M14,2.25 µM (inactive)
same,GI50,A498,0.902 µM (active)
same,GI50,EKVX,0.948 µM (active)
same,GI50,DMS-114,23.7 µM (inactive)
same,GI50,HT-29,6.85 µM (inactive)
same,GI50,M19-MEL,1.56 µM (inactive)
same,GI50,786-0,9.33 µM (inactive)
same,GI50,HCC 2998,16.5 µM (inactive)
same,GI50,HCT-15,1.12 µM
same,GI50,KM12,8.45 µM (inactive)
same,GI50,SK-MEL-2,0.522 µM (active)
same,GI50,UO-31,3.72 µM (inactive)
same,GI50,RXF 393,0.811 µM (active)
same,GI50,ACHN,0.447 µM (active)
same,GI50,SW-620,9.59 µM (inactive)
same,GI50,SN12C,1.51 µM (inactive)
same,GI50,HOP-92,< 0.003 µM (active)
same,GI50,SK-MEL-28,> 30 µM (inactive)
same,GI50,UACC-62,0.469 µM (active)
same,GI50,SNB-78,> 30 µM (inactive)
same,GI50,OVCAR-3,23.1 µM (inactive)
NC(=S)N/N=C(\C(=O)Nc1ccc(Cl)c(Cl)c1)C1=NN(c2ccccc2)C(c2cccc([N+](=O)[O-])c2)CC1=O (stereo unspecified),GI50,XF498,34.3 µM (inactive)
same,GI50,HL-60,33.7 µM (inactive)
same,GI50,OVCAR-4,20 µM (inactive)
same,GI50,CCRF-CEM,17.2 µM (inactive)
same,GI50,HOP-62,34.6 µM (inactive)
same,GI50,Malme-3M,> 100 µM (inactive)
same,GI50,HCT-116,4.29 µM (inactive)
same,GI50,SF-539,23.8 µM (inactive)
same,GI50,RPMI-8226,3.37 µM (inactive)
same,GI50,DMS-273,11.7 µM (inactive)
same,GI50,A549,75.2 µM (inactive)
same,GI50,KM-20L2,20.7 µM (inactive)
same,GI50,K562,17.9 µM (inactive)
same,GI50,RXF 631,12 µM (inactive)
same,GI50,OVCAR-8,26.7 µM (inactive)
same,GI50,SNB-19,35.6 µM (inactive)
same,GI50,IGROV-1,27 µM (inactive)
same,GI50,NCI-H460,36.6 µM (inactive)
same,GI50,MOLT-4,17.3 µM (inactive)
same,GI50,UACC-257,30.2 µM (inactive)
same,GI50,SK-OV-3,30.5 µM (inactive)
same,GI50,LXFL 529,19.1 µM (inactive)
same,GI50,HOP-18,29.1 µM (inactive)
same,GI50,COLO 205,19 µM (inactive)
same,GI50,NCI-H23,21.5 µM (inactive)
same,GI50,SF-295,24.9 µM (inactive)
same,GI50,SNB-75,26.5 µM (inactive)
same,GI50,SR,28.6 µM (inactive)
same,GI50,DLD-1,19.4 µM (inactive)
same,GI50,OVCAR-5,38.5 µM (inactive)
same,GI50,CAKI-1,79.4 µM (inactive)
same,GI50,SF-268,38.5 µM (inactive)
same,GI50,U-251,4.31 µM (inactive)
same,GI50,M14,55.1 µM (inactive)
same,GI50,A498,> 100 µM (inactive)
same,GI50,EKVX,> 100 µM (inactive)
same,GI50,DMS-114,20.7 µM (inactive)
same,GI50,HT-29,16.5 µM (inactive)
same,GI50,M19-MEL,18.4 µM (inactive)
same,GI50,786-0,17.6 µM (inactive)
same,GI50,HCC 2998,40.6 µM (inactive)
same,GI50,TK-10,> 100 µM (inactive)
same,GI50,HCT-15,30.8 µM
same,GI50,SK-MEL-5,> 100 µM (inactive)
same,GI50,KM12,85.9 µM (inactive)
same,GI50,SK-MEL-2,> 100 µM (inactive)
same,GI50,UO-31,30.3 µM (inactive)
same,GI50,ACHN,39.2 µM (inactive)
same,GI50,LOX IMVI,16.3 µM (inactive)
same,GI50,SW-620,13.8 µM (inactive)
same,GI50,NCI-H226,25.9 µM (inactive)
same,GI50,SN12C,16.8 µM (inactive)
same,GI50,SK-MEL-28,52.5 µM (inactive)
same,GI50,UACC-62,40.8 µM (inactive)
same,GI50,SNB-78,62.4 µM (inactive)
same,GI50,OVCAR-3,20.6 µM (inactive)
